What was measured:
[1] = system: acetic acid stretching symptom; test: Analgesic activity (Acetic acid stretching method); type: in vivo, mouse (ddy-strain); conditions: 100 mg per kg oral, ddy-strain mice, 0.2 ml of 0.7% acetic acid intraperitoneal
Method: (3) Analgesic activity (Acetic acid stretching method)
After the compounds to be tested were orally administrated in 100 mg per kg of ddy-strain mice having their weight range of 20 to 25 g, 0.2 ml of 0.7% acetic acid was intra-peritoneally administrated to each animal to observe stretching symptom thereby having found the inhibition ratio (%).

[2] = Acute toxicity (LD50, oral, mice); conditions: mouse, in vivo, dd-strain male mice 20 to 25 g, fasted overnight, suspended in 0.5% carboxymethyl cellulose, observed seven days
Text: The compounds to be tested were suspended in 0.5% carboxymethyl cellulose solution, and the suspension was orally administrated in variable amounts in response to the weights of dd-strain male mice having those ranging from 20 to 25 g which were forced to abstain from food overnight.

[3] = system: carrageenin edema; test: Anti-inflammatory activity (Carrageenin edema method); type: in vivo, rat (Wistar strain; conditions: 100 mg per kg oral, Wistar-strain male rats, 0.1 ml of 1% carrageenin s.c. left hind paw, edema weight after three hours, vs control group
Method: (2) Anti-inflammatory activity (Carrageenin edema method)
The compounds to be tested were suspended in 0.5% carboxymethyl cellulose solution, and the suspension was orally administrated in 100 mg per kg of Wistarstrain male rats having their weight range of 130 to 170 g which were forced to abstain from food overnight. These rats were then injected subcutaneously into their left hind paws each with 0.1 ml of a physiological NaCl solution having dissolved therein carrageen in 1% concentration. After three hours from said injection, the rats were killed, both hind legs were cut out and promptly weighed. There is assumed as weight of edema a value obtained by deducting a weight of untreated hind leg from that of the carrageenin injected hind leg of the rat. Inhibition ratio of a sample-administrated group to a control group has been sought. The control group was administrated only with 0.5% […] solution in the same manner.

SMILES	Analgesic activity (Stretching method), inhibition ratio [1] [%]	LD50 at 168 h [2] [mg/kg]	Anti-inflammatory activity (Carrageenin edema method), inhibition ratio [3] [%]
Cc1cc(C(=O)C=NO)on1 [(3-Methylisoxazole-5-yl)glyoxal-2-oxim, (3-methylisoxazole-5-yl)glyoxal-2-oxim]	50	890	83
O=C(C=NO)c1cc(-c2ccccc2)no1 [(3-Phenylisoxazole-5-yl)glyoxal-2-oxim, (3-phenylisoxazole-5-yl)glyoxal-2-oxim]	75	1690	56
